Assay results reported in ChEMBL document CHEMBL5375967 (J Med Chem, 2023).
In brackets after ≈: the same amount, converted by molar mass.

Molecular target: T1, Voltage-gated inwardly rectifying potassium channel KCNH2 (Homo sapiens, UniProt Q12809)
Assay: not given
Details: not given

T1 sequence (Q12809 whole entry): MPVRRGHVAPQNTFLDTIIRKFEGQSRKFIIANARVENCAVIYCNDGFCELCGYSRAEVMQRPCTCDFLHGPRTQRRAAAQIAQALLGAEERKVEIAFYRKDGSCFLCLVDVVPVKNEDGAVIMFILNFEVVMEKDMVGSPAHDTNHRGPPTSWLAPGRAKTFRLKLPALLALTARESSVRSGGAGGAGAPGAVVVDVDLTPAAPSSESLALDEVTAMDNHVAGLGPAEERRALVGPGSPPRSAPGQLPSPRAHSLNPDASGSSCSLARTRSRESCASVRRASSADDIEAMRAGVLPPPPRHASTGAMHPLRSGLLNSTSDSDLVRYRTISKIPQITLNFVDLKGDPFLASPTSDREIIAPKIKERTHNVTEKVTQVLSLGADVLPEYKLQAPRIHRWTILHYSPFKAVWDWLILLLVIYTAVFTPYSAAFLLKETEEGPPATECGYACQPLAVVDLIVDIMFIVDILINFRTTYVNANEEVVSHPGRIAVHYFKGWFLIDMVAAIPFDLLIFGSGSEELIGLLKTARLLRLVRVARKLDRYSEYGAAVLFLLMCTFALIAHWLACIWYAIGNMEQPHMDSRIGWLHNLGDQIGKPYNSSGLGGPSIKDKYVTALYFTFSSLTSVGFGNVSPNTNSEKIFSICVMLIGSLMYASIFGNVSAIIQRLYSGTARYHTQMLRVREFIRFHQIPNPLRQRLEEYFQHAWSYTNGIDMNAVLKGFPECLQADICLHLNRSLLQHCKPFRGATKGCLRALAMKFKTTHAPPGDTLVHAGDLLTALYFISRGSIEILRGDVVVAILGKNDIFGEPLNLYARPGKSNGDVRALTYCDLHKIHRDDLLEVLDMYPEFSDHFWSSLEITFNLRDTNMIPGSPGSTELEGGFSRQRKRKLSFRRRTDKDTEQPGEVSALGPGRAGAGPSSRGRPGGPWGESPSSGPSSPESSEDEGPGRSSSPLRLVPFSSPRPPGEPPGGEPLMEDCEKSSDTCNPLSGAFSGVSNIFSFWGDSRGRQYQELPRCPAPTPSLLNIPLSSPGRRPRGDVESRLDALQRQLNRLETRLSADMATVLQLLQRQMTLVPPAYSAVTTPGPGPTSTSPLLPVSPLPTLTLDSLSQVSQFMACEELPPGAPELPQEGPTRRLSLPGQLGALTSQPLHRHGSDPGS

SMILES | IC50
N[C@@H](CO)Cn1nnc(-c2ccc(Oc3ncc(Cl)cc3F)cc2)n1 | > 30 µM
N[C@H](CO)Cn1nnc(-c2ccc(Oc3ncc(Cl)cc3F)cc2)n1 | 30 µM
N[C@H](CO)Cc1nc(-c2ccc(Oc3ccc(-c4cc[nH]n4)cn3)cc2)no1 | > 30 µM

System: not listed separately
Assay: physchem
Details: not given

pKa | SMILES
7.1 | N[C@@H](CO)Cn1nnc(-c2ccc(Oc3ncc(Cl)cc3F)cc2)n1
7.1 | N[C@H](CO)Cn1nnc(-c2ccc(Oc3ncc(Cl)cc3F)cc2)n1

System: not listed separately
Assay: in vivo
Details: Sprague-Dawley, rat, iv, 1 mg/kg

Vd | SMILES
36 L/kg | N[C@@H](CO)Cn1nnc(-c2ccc(Oc3ncc(Cl)cc3F)cc2)n1
3 L/kg | N[C@H](CO)Cn1nnc(-c2ccc(Oc3ncc(Cl)cc3F)cc2)n1
21 L/kg | N[C@H](CO)Cc1nc(-c2ccc(Oc3ccc(-c4cc[nH]n4)cn3)cc2)no1

System: not listed separately
Assay: in vitro
Details: dog, MDCK

SMILES | Papp A→B
N[C@H](CCO)Cn1nnc(-c2ccc(Oc3ncc(Cl)cc3F)cc2)n1 | 21 ×10⁻⁶ cm/s
N[C@H](CO)Cn1nnc(-c2ccc(Oc3ncc(Cl)cc3F)cc2)n1 | 28 ×10⁻⁶ cm/s
Cc1ccc(Oc2ccc(-c3nnn(CCN)n3)cc2)cc1 | 34 ×10⁻⁶ cm/s
N[C@@H](CC(=O)O)Cn1nnc(-c2ccc(Oc3ncc(Cl)cc3F)cc2)n1 | 1.8 ×10⁻⁶ cm/s

Second part, the molecule after the results:

Papp A→B | SMILES
23 ×10⁻⁶ cm/s | N[C@@H](CCO)Cn1nnc(-c2ccc(Oc3ncc(Cl)cc3F)cc2)n1
25 ×10⁻⁶ cm/s | N[C@@H](CO)Cn1nnc(-c2ccc(Oc3ncc(Cl)cc3F)cc2)n1
9 ×10⁻⁶ cm/s | N[C@H](CO)Cc1nc(-c2ccc(Oc3ccc(-c4cc[nH]n4)cn3)cc2)no1

System: not listed separately
Assay: in vivo
Details: Sprague-Dawley, rat, iv, 1 mg/kg
Remark: another data set of the same source

clearance | SMILES
134 mL/min/kg | N[C@@H](CO)Cn1nnc(-c2ccc(Oc3ncc(Cl)cc3F)cc2)n1
9 mL/min/kg | N[C@H](CO)Cn1nnc(-c2ccc(Oc3ncc(Cl)cc3F)cc2)n1
16 mL/min/kg | N[C@H](CO)Cc1nc(-c2ccc(Oc3ccc(-c4cc[nH]n4)cn3)cc2)no1

Molecular target: T1, Voltage-gated inwardly rectifying potassium channel KCNH2
Assay: not given
Details: not given
Remark: another data set of the same source

SMILES | IC50
N[C@H](CCO)Cn1nnc(-c2ccc(Oc3ncc(Cl)cc3F)cc2)n1 | > 30 µM
N[C@@H](CO)Cn1nnc(-c2ccc(Oc3ncc(Cl)cc3F)cc2)n1 | > 30 µM
N[C@H](CO)Cn1nnc(-c2ccc(Oc3ncc(Cl)cc3F)cc2)n1 | > 30 µM
Cc1ccc(Oc2ccc(-c3nnn(CCN)n3)cc2)cc1 | 6 µM
N[C@H](CO)Cc1nc(-c2ccc(Oc3ccc(-c4cc[nH]n4)cn3)cc2)no1 | > 30 µM

Molecular target: T2, Leukotriene A-4 hydrolase (Homo sapiens, UniProt P09960)
T2 sequence (P09960 whole entry): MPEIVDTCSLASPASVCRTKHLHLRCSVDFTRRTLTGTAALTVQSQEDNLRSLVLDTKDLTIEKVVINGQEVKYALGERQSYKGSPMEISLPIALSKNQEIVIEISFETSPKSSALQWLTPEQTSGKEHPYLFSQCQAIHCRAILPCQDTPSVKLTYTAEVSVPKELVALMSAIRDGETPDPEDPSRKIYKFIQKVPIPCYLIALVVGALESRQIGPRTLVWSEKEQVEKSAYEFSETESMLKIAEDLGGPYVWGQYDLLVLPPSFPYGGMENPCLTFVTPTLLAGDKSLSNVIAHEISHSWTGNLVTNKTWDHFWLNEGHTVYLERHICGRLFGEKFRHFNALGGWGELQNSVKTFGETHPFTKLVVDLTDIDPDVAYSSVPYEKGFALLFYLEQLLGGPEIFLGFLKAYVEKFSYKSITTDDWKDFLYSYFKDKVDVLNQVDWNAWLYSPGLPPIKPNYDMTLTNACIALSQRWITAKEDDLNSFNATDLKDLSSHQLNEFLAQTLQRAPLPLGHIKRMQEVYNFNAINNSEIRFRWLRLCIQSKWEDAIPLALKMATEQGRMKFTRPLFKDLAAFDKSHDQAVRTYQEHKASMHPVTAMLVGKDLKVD
Assay: Inhibition of LTA4H (unknown origin)
Details: not given

SMILES | IC50
CC(=O)N[C@H]1C[C@H]2CC[C@@H](C1)N2Cc1ccc(Oc2nc3ncccc3s2)cc1 | 0.003 µM
O=C(O)c1ccc(CN2C[C@@H]3C[C@H]2CN3Cc2ccc(Oc3ccc(-c4ncco4)cc3)cc2)cc1 [ACEBILUSTAT] | 0.003 µM

System: not listed separately
Assay: in vivo
Details: C57BL/6, mouse, blood, po, 10 mg/kg

concentration at 24 h | SMILES
134 nM | N[C@H](CO)Cn1nnc(-c2ccc(Oc3ncc(Cl)cc3F)cc2)n1
116 nM | N[C@H](CO)Cc1nc(-c2ccc(Oc3ccc(-c4cc[nH]n4)cn3)cc2)no1

Same assay, conditions: C57BL/6, mouse, in vivo, po, 10 mg/kg

concentration at 24 h | SMILES
184 nM | N[C@@H](CC(=O)O)Cn1nnc(-c2ccc(Oc3ncc(Cl)cc3F)cc2)n1

System: not listed separately
Assay: in vivo
Details: C57BL/6, mouse, blood, po, 10 mg/kg
Remark: another data set of the same source

concentration at 2 h | SMILES
2980 nM | N[C@H](CO)Cn1nnc(-c2ccc(Oc3ncc(Cl)cc3F)cc2)n1
800 nM | N[C@H](CO)Cc1nc(-c2ccc(Oc3ccc(-c4cc[nH]n4)cn3)cc2)no1

Same assay, conditions: C57BL/6, mouse, in vivo, po, 10 mg/kg

concentration at 2 h | SMILES
1290 nM | N[C@@H](CC(=O)O)Cn1nnc(-c2ccc(Oc3ncc(Cl)cc3F)cc2)n1

System: not listed separately
Assay: in vivo
Details: Sprague-Dawley, rat, iv, 1 mg/kg
Remark: another data set of the same source

MRT | SMILES
4.5 h | N[C@@H](CO)Cn1nnc(-c2ccc(Oc3ncc(Cl)cc3F)cc2)n1
5.3 h | N[C@H](CO)Cn1nnc(-c2ccc(Oc3ncc(Cl)cc3F)cc2)n1
23 h | N[C@H](CO)Cc1nc(-c2ccc(Oc3ccc(-c4cc[nH]n4)cn3)cc2)no1

System: not listed separately
Assay: in vivo
Details: Sprague-Dawley, rat, iv, 1 mg/kg
Remark: another data set of the same source

bioavailability | SMILES
37% | N[C@@H](CO)Cn1nnc(-c2ccc(Oc3ncc(Cl)cc3F)cc2)n1
100% | N[C@H](CO)Cn1nnc(-c2ccc(Oc3ncc(Cl)cc3F)cc2)n1
49% | N[C@H](CO)Cc1nc(-c2ccc(Oc3ccc(-c4cc[nH]n4)cn3)cc2)no1

System: not listed separately
Assay: in vitro
Details: mouse, liver microsomes

SMILES | microsomal CLint
N[C@H](CCO)Cn1nnc(-c2ccc(Oc3ncc(Cl)cc3F)cc2)n1 | 145 µL/min/mg
N[C@H](CO)Cn1nnc(-c2ccc(Oc3ncc(Cl)cc3F)cc2)n1 | < 25 µL/min/mg
Cc1ccc(Oc2ccc(-c3nnn(CCN)n3)cc2)cc1 | 246 µL/min/mg
N[C@@H](CC(=O)O)Cn1nnc(-c2ccc(Oc3ncc(Cl)cc3F)cc2)n1 | < 25 µL/min/mg

The next lines start with the values.

microsomal CLint | SMILES
< 25 µL/min/mg | N[C@@H](CO)Cn1nnc(-c2ccc(Oc3ncc(Cl)cc3F)cc2)n1
29 µL/min/mg | N[C@H](CO)Cc1nc(-c2ccc(Oc3ccc(-c4cc[nH]n4)cn3)cc2)no1

System: not listed separately
Assay: physchem
Details: octanol/water, pH 7.4

SMILES | logD
N[C@H](CCO)Cn1nnc(-c2ccc(Oc3ncc(Cl)cc3F)cc2)n1 | 2.4
N[C@H](CO)Cn1nnc(-c2ccc(Oc3ncc(Cl)cc3F)cc2)n1 | 2.3
Cc1ccc(Oc2ccc(-c3nnn(CCN)n3)cc2)cc1 | 3
N[C@@H](CC(=O)O)Cn1nnc(-c2ccc(Oc3ncc(Cl)cc3F)cc2)n1 | 0.5

Now from value to molecule:

logD | SMILES
2.3 | N[C@@H](CO)Cn1nnc(-c2ccc(Oc3ncc(Cl)cc3F)cc2)n1
1.8 | N[C@H](CO)Cc1nc(-c2ccc(Oc3ccc(-c4cc[nH]n4)cn3)cc2)no1

System: not listed separately
Assay: Inhibition of calcium ionophore A23187-stimulated LTB4 release in C57BL/6 mouse model at 10 mg/kg, po bid measured after 2 hrs
Format: functional
Details: not given

SMILES | inhibition in vivo at 10 mg/kg
N[C@@H](CC(=O)O)Cn1nnc(-c2ccc(Oc3ncc(Cl)cc3F)cc2)n1 | 97%

Molecular target: T1, Voltage-gated inwardly rectifying potassium channel KCNH2
Assay: not given
Details: not given
Remark: another data set of the same source

SMILES | IC50
N[C@H](CO)Cn1nnc(-c2ccc(Oc3ncc(Cl)cc3F)cc2)n1 | 28 µM
N[C@H](CO)Cc1nc(-c2ccc(Oc3ccc(-c4cc[nH]n4)cn3)cc2)no1 | > 100 µM

System: not listed separately
Assay: physchem
Details: buffer, pH 6.8

SMILES | solubility
N[C@H](CCO)Cn1nnc(-c2ccc(Oc3ncc(Cl)cc3F)cc2)n1 | 580 µM (≈ 220 µg/mL)
N[C@H](CO)Cn1nnc(-c2ccc(Oc3ncc(Cl)cc3F)cc2)n1 | > 1000 µM
Cc1ccc(Oc2ccc(-c3nnn(CCN)n3)cc2)cc1 | 30 µM (≈ 8.86 µg/mL)
N[C@@H](CC(=O)O)Cn1nnc(-c2ccc(Oc3ncc(Cl)cc3F)cc2)n1 | 620 µM (≈ 244 µg/mL)

Next, values leading:

solubility | SMILES
520 µM (≈ 190 µg/mL) | N[C@@H](CO)Cn1nnc(-c2ccc(Oc3ncc(Cl)cc3F)cc2)n1
870 µM (≈ 329 µg/mL) | N[C@H](CO)Cc1nc(-c2ccc(Oc3ccc(-c4cc[nH]n4)cn3)cc2)no1

Molecular target: T2, Leukotriene A-4 hydrolase
Assay: Inhibition of LTA4H in human blood assessed as LTB4 production
Format: tissue-based
Details: not given

SMILES | IC50
CC(=O)N[C@H]1C[C@H]2CC[C@@H](C1)N2Cc1ccc(Oc2nc3ncccc3s2)cc1 | 0.042 µM
O=C(O)c1ccc(CN2C[C@@H]3C[C@H]2CN3Cc2ccc(Oc3ccc(-c4ncco4)cc3)cc2)cc1 [ACEBILUSTAT] | 0.135 µM

System: not listed separately
Assay: in vivo
Details: Sprague-Dawley, rat, po, 3 mg/kg

AUC(0-inf) | SMILES
0.369 µM·h | N[C@@H](CO)Cn1nnc(-c2ccc(Oc3ncc(Cl)cc3F)cc2)n1
14.7 µM·h | N[C@H](CO)Cn1nnc(-c2ccc(Oc3ncc(Cl)cc3F)cc2)n1
4.2 µM·h | N[C@H](CO)Cc1nc(-c2ccc(Oc3ccc(-c4cc[nH]n4)cn3)cc2)no1

System: not listed separately
Assay: in vitro
Details: human, liver microsomes

SMILES | microsomal CLint
N[C@H](CCO)Cn1nnc(-c2ccc(Oc3ncc(Cl)cc3F)cc2)n1 | 40 µL/min/mg
N[C@H](CO)Cn1nnc(-c2ccc(Oc3ncc(Cl)cc3F)cc2)n1 | < 25 µL/min/mg
Cc1ccc(Oc2ccc(-c3nnn(CCN)n3)cc2)cc1 | 396 µL/min/mg
N[C@@H](CC(=O)O)Cn1nnc(-c2ccc(Oc3ncc(Cl)cc3F)cc2)n1 | < 25 µL/min/mg

Next, values leading:

microsomal CLint | SMILES
< 25 µL/min/mg | N[C@@H](CO)Cn1nnc(-c2ccc(Oc3ncc(Cl)cc3F)cc2)n1
< 25 µL/min/mg | N[C@H](CO)Cc1nc(-c2ccc(Oc3ccc(-c4cc[nH]n4)cn3)cc2)no1

System: not listed separately
Assay: in vivo
Details: Sprague-Dawley, rat, iv, 1 mg/kg
Remark: another data set of the same source

concentration at 24 h | SMILES
2 nM | N[C@@H](CO)Cn1nnc(-c2ccc(Oc3ncc(Cl)cc3F)cc2)n1
52 nM | N[C@H](CO)Cn1nnc(-c2ccc(Oc3ncc(Cl)cc3F)cc2)n1
23 nM | N[C@H](CO)Cc1nc(-c2ccc(Oc3ccc(-c4cc[nH]n4)cn3)cc2)no1

System: not listed separately
Assay: in vitro
Details: rat, liver microsomes

SMILES | microsomal CLint
N[C@H](CCO)Cn1nnc(-c2ccc(Oc3ncc(Cl)cc3F)cc2)n1 | 94 µL/min/mg
N[C@H](CO)Cn1nnc(-c2ccc(Oc3ncc(Cl)cc3F)cc2)n1 | < 25 µL/min/mg
Cc1ccc(Oc2ccc(-c3nnn(CCN)n3)cc2)cc1 | 266 µL/min/mg
N[C@@H](CC(=O)O)Cn1nnc(-c2ccc(Oc3ncc(Cl)cc3F)cc2)n1 | < 25 µL/min/mg

Other lines, results leading:

microsomal CLint | SMILES
< 25 µL/min/mg | N[C@@H](CO)Cn1nnc(-c2ccc(Oc3ncc(Cl)cc3F)cc2)n1
< 25 µL/min/mg | N[C@H](CO)Cc1nc(-c2ccc(Oc3ccc(-c4cc[nH]n4)cn3)cc2)no1

System: not listed separately
Assay: in vivo
Details: Sprague-Dawley, rat, iv, 1 mg/kg
Remark: another data set of the same source

Cmax | SMILES
42 nM | N[C@@H](CO)Cn1nnc(-c2ccc(Oc3ncc(Cl)cc3F)cc2)n1
1300 nM | N[C@H](CO)Cn1nnc(-c2ccc(Oc3ncc(Cl)cc3F)cc2)n1
403 nM | N[C@H](CO)Cc1nc(-c2ccc(Oc3ccc(-c4cc[nH]n4)cn3)cc2)no1
